Measurements published in US20180057888A1, “KUB5/HERA AS A DETERMINANT OF SENSITIVITY TO DNA DAMAGE” (priority 2015, published 2018).
Like-named read-outs stand apart in the source and are kept apart here.

Tests used:
231 cells = test: Western blot analysis of pS1497-BRCA1 and CDK1 in 231 cells; format: cell-based; conditions: 24 hr; for CDK1 protein level: Rucaparib 5 μM and/or RO3066 0.5 and 1 μM
Description: FIGS. 9A-H. Loss of K-H compromises CDK1 expression/activity and reduces HR-mediated DSB repair. (FIG. 9[…]1 cells transiently transfected with indicated concentrations of siK-H for 48 hr. Total cellular proteins from each treatments were subjected to Western blot analysis using indicated antibodies. (FIG. 9B) Western blot analysis of CDK1 protein levels in 231 […] treated with siK-H (15 nM) and harvested at various times (24, 48, 72 hr). (FIG. 9C) Western blot analysis of CDK1 protein levels in 231 cells treated with siRNA to nonspecific gene control (siSCR) or specific genes as indicated (15 nM). Specific siRNA oligonucleotide sequences used in this study are listed in Table S3. […] (FIG. 9E) 231 cells treated with ionizing radiation (IR, 2 Gy) and harvested after 1 hr. […] Bottom, Endogenous phospho-[…] BRCA1 is higher in shSCR compared to shK-H. After IR treatment, […] BRCA1 phosphorylation is impaired in 231 shK-H but not in shSCR. (FIG. 9F) 231 cells treated with PARP1i Rucaparib (5 μM, 24 hr), CDK1 inhibitor RO3066 (0.5 and 1 μM, 24 hr) or combination [Rucaparib+RO3066]. Cells were harvested after 24 hr treatment. […] BRCA1 was activated ([…]-BRCA1) after Rucaparib treatment alone (lane 2) but not in combination with CDK1 inhibitor, RO3066 (lanes 5 and 6). […] (FIG. 90) Comparison of 231 […]) treated with Rucaparib (5 μM, 24 hr), CDK1 inhibitor RO3066 (1 μM, 24 hr) or combination [Rucaparib+RO3066]. Cells were harvested after 24 hr treatment. […] Endogenous […]-BRCA1 was higher in vehicle-treated shSCR (lane 1) compared to shK-H (lane 6). […] (FIG. 9H) Homologous recombination assay in MCF-7 cells using DR-GFP reporter system. Columns represent mean percentage of GFP-positive cells normalized to control (siSCR); error bars represent ±s.e.m. from duplicate experiments, *p<0.05, **p<0.01. See Table S3 for siRNA sequences. siK-H used was to 3'-UTR. Western Blot Analysis. Whole-cell lysates and nuclear extracts were prepared as previously described (Morales et al., 2014). See Supplementary Table S2 for a list of specific antibodies and dilutions used. Protein concentrations were determined by BCA Assay following manufacturer's instructions (Thermo Scientific). Normalized protein samples were separated on denaturing gradient gels (4-20% from BioRad) and were transferred to PVDF membranes for immunoblotting. After transfer, the membranes were first blocked with 1× Sigma Blocking Buffer for an hour at room temperature. The membranes were then incubated with the indicated primary antibodies diluted in 1× Sigma Blocking Buffer at 4° C. overnight. After this step, the membranes were washed with PBST (3×, 10 minutes each). HRP-conjugated secondary antibodies were diluted in 1× Sigma Blocking Buffer and incubated with the membranes at room temperature for 1 hr. […]

shK-H 231 cells [1] = test: TUNEL assay of apoptotic cell death; format: cell-based; conditions: Rucaparib 5 and 10 μM, 24 hr
Description: TUNEL Assay. To measure apoptotic cell death, log phase 231 shSCR or shK-H cells were treated with the vehicle (0.01% DMSO) or Rucaparib (5 and 10 μM) for 24 hr, and incubated in drug-free media for additional 72 hr in the cell incubator. The cells were then harvested and fixed in 70% ethanol overnight at −20° C. Equal amount of cells from each treatment were then subjected to terminal deoxynucleotidyltransferase dUTP nick end labeling (TUNEL) following the standard protocols from APO-Direct TUNEL Assay kit (BD Biosciences), which include positive and negative controls. Flow cytometry experiments were immediately performed using the BD LSRFortessa II cell analyzer, and data were analyzed using the BD FACSDiva software (www.bdbiosciences.com). All experiments were performed in triplicate.

MDA-MB-231 shSCR cells = test: Colony formation assay (clonogenic survival), MDA-MB-231 shSCR; format: cell-based
Description: (§1) Colony Formation Assay (CFA).
(§2) Cells were seeded out in appropriate dilutions and treated with the vehicle (0.01% DMSO) or PARP inhibitors at various concentrations for 24 hr. After treatment, cells were then cultured in drug-free medium for several days (at least six rounds of replication), depending on the proliferation rate of each cell line. Colonies were fixed with formaldehyde (4%) and stained with crystal violet. Colonies containing more than 50 normal-appearing cells were counted using a microscope. Each drug concentration was assessed in triplicate, and the experiments were repeated three times.

[2] = tested on: HCC202 breast cancer cell line; test: cells; format: cell-based; conditions: HCC202, read-out: AG014699 Mean LC50 (SEM)
Description: as §1, §2

[3] = tested on: HTB122 breast cancer cell line; test: cells; format: cell-based; conditions: read-out: AG014699 Mean LC50 (SEM)
Description: as §1, §2

[4] = tested on: HCC1569 breast cancer cell line; test: cells; format: cell-based; conditions: Homo sapiens, HCC1569, read-out: AG014699 Mean LC50 (SEM)
Description: as §1, §2

[5] = tested on: HTB24 breast cancer cell line; test: cells; format: cell-based; conditions: read-out: AG014699 Mean LC50 (SEM)
Description: as §1, §2

[6] = tested on: MCF-7 breast cancer cell line; test: cells; format: cell-based; conditions: Homo sapiens, MCF7, read-out: AG014699 Mean LC50 (SEM)
Description: as §1, §2

MDA-MB-231 shK-H cells = test: Colony formation assay (clonogenic survival), MDA-MB-231 shK-H; format: cell-based; conditions: for CC50: Homo sapiens; for sensitivity of shK-H cells in colony forming assays: shK-H cells compared to parental or shSCR 231 cells, 24 hr treatment
Description: as §1, §2

shSCR 231 cells = test: Immunofluorescence of γ-H2AX and 53BP1 foci (DSB markers), shSCR cells; format: cell-based; conditions: shSCR 231 cells with wild-type K-H; Rucaparib 5 μM, 24 hr
Description: (§3) MDA-MB-231 shSCR or shK-H cells were plated in a six-well plate (˜200,000 each well containing a glass slide) overnight. The next day, cells were treated with DMSO (0.01%) or Rucaparib/AG014699 (5 μM) for 24 hr. After treatment, the media was gently replaced with drug-free media and harvested at various times (0, 1, 6, 24 hr). The slides were gently washed with phosphate-buffered solution (pH=7.4), and fixed with ice cold methanol:acetone solution (3:1) for 10 min at −20° C. The cells were then washed and rehydrated with PBS at room temperature (3×, 5 min intervals). Next, the cells were incubated in blocking solution (5% normal goat serum in PBS) for 60 min at RT. After blocking, the cells were then incubated in primary antibody (diluted in 5% normal goat serum in PBS) overnight at 4° C. The next day, the cells were washed three times with wash buffer (1% BSA in PBS; 5 min. interval between washes). […]
(§4) To elucidate the mechanism by which K-H depletion sensitizes cells to PARP inhibition, the inventors treated shSCR vs shK-H 231 cells with vehicle (0.01% DMSO) or Rucaparib (5 μM) for 24 hr and quantified DSB formation at various times post-treatment using γ-H2AX and/or 53BP1 as surrogate DSB markers (Lobrich et al., 2010; Anderson et al., 2001 and Bekker-Jensen et al., 2005) (representative images, FIG. 2A).

HCC1937 cells = test: Sulforhodamine B viability assay in HCC1937 cells; format: cell-based; conditions: Rucaparib 30 μM, 24 hr
Excerpt: FIGS. 8A-H. Pharmacological and genetic ablation of PARP1 activity is synthetic lethal with aberrant K-H reduction in BRCA-proficient breast cancers. (FIG. 8A) Western blot analysis of the parental BRCA-proficient 231 TNBC compared with 231 cells engineered to generate stable short hairpin RNA targeting non-specific gene control (shSCR), Kub5-Hera (shK-H) or PARP1 (shPARP1). (FIG. 8B) Chemical structures of PARP inhibitors used in this study. Left, AG014361; Right, AG014699 or Rucaparib. (C) Colony formation of specified cell lines treated with varying concentrations (0, 1, 2.5, 5, 10, 25 μM) of PARP inhibitor, AG014361, for 24 hr. Survival is expressed as mean percentage of colonies formed relative to vehicle-treated (0.01% DMSO) cells; error bars represent ±s.e.m. from three replicates. (FIG. 8D) Total cellular proteins from indicated 231 cells treated with vehicle (0.01% DMSO), AG014699/Rucaparib (5 μM), or staurosporine (STS, 2 μM) were subjected to Western blot analysis with indicated antibodies. (FIG. 8E) Western blot analysis of HCC1937 cell lines stably transfected with empty vector (lane 1), BRCA1 cDNA (lane 2), BRCA1 cDNA+ transient siSCR (lane 3), or BRCA1 cDNA+ transient siK-H (lane 4). […] Colorimetric intensity values were obtained using a plate reader, and normalized to control (0.01% DMSO). […]

PARP1 = PARP1 (Homo sapiens, UniProt P09874); test: PARP activity assay (PAR formation, immunoblot of total protein lysates); format: biochemical; conditions: lysates of parental, shK-H, shPARP1, shSCR 231 cells
Description: PARP Activity Assay. PARP activity was measured using immunoblot assay, which measured the amount of poly(ADP)-ribonucleotide (PAR) products synthesized using total protein lysates for PARP enzymatic activity in vitro. Briefly, the reaction containing total protein lysate (90 μg), and excess blunt-ended double-strand DNA oligonucleotide (26-mer) with internal synthetic abasic site (50 uM) in a reaction buffer containing Tris-HCl (10 mM, pH=7.4) and Mg^2+ (12 mM) was initiated by addition of excess β-NAD^+ (10 mM). The reaction was then stopped at various time-points by the addition of ice-cold concentrated AG014699/Rucaparib (250 μM), a known PARP1 inhibitor. Aliquots from each time points of the reaction were blotted onto a nitrocellulose membrane (BioRad dot blotter), and processed using standard Western blot assays. The density of each dots were quantified by ImageJ and plotted by GraphPad PRISM after normalization to controls (no NAD^+ addition).

[7] = tested on: MDA-MB-231 breast cancer cell line; test: Colony formation assay (clonogenic survival), parental MDA-MB-231; format: cell-based
Description: as §1, §2

shK-H 231 cells [8] = test: Immunofluorescence of γ-H2AX and 53BP1 foci (DSB markers), shK-H cells; format: cell-based; conditions: shK-H-depleted 231 cells, Rucaparib 5 μM, 24 hr
Description: as §3, §4

MDA-MB-231 shPARP1 cells = test: Colony formation assay (clonogenic survival), MDA-MB-231 shPARP1; format: cell-based
Description: as §1, §2

[9] = Homo sapiens, MDA-MB-231, read-out: AG014699 Mean LC50 (SEM)
[10] = Homo sapiens, MDA-MB-231, read-out: LC50 values

Sequence of PARP1 (P09874 whole entry): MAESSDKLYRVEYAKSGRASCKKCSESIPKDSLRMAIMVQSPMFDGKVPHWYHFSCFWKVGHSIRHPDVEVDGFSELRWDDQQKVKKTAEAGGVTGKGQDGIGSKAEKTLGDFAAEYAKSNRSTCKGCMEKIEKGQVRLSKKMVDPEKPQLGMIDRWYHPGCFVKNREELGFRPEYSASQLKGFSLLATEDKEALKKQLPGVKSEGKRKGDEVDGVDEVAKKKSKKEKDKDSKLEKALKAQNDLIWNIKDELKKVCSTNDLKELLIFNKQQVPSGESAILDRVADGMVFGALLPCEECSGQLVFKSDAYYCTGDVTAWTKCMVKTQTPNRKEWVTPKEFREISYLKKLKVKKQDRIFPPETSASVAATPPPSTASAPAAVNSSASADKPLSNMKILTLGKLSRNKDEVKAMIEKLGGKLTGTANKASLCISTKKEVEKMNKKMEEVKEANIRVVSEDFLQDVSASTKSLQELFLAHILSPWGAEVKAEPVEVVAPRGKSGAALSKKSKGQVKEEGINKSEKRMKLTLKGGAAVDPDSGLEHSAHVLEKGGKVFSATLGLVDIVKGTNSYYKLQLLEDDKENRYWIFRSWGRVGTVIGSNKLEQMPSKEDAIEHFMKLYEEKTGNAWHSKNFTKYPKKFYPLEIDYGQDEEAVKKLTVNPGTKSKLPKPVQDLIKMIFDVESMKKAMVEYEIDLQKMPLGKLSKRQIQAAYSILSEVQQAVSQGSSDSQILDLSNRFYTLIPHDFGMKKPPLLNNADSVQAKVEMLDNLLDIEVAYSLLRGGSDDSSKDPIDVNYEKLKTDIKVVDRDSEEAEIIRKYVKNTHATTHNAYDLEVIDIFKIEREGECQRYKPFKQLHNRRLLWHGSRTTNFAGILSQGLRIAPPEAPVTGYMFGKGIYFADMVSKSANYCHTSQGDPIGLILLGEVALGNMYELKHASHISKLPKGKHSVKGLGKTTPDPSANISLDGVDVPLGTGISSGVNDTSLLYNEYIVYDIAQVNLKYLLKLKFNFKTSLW

SMILES: O=C1NC(=NCc2cccs2)S/C1=C\c1ccc2ncccc2c1 [RO3066]
- CDK1 protein level (231 cells; 231 cells): no further reduction of CDK1
- pS1497-BRCA1 activation in combination with Rucaparib (231 cells; 231 shSCR cells, Rucaparib 5 μM + RO3066 1 μM): inhibited

SMILES: CNCc1ccc(-c2[nH]c3cc(F)cc4c3c2CCNC4=O)cc1 [AG014699, Rucaparib]
- apoptosis (% TUNEL+) (shK-H 231 cells [1]): dose-dependent increase in apoptosis
- CC50 (MDA-MB-231 shSCR cells; [9]): 18 µM
- CC50 (MDA-MB-231 shSCR cells; [10]): ~20 µM
- CC50 [2]: 6.7 µM
- CC50 [3]: 3.9 µM
- CC50 [4]: 18 µM
- CC50 [5]: 1.5 µM
- CC50 [6]: 11 µM
- CC50 (MDA-MB-231 shK-H cells; MDA-MB-231, read-out: AG014699 Mean LC50 (SEM)): 0.7 µM
- CC50 (MDA-MB-231 shK-H cells; MDA-MB-231, read-out: lethality (LC50) in shK-H 231 cells): 0.66 µM
- fold greater lethality than similar AG014361 exposures (MDA-MB-231 shK-H cells; shK-H 231 cells, Rucaparib vs AG014361): ~6 fold
- levels of DSBs after exposure (shSCR 231 cells): significantly lower levels of DSBs
- lethality after siK-H depletion of BRCA1-corrected cells (HCC1937 cells; BRCA1-corrected HCC1937 + siK-H): induced lethality
- lethality after reconstitution with BRCA1 cDNA (HCC1937 cells; BRCA-deficient HCC1937 + BRCA1 cDNA): abolished
- Relative PARP enzymatic activity [PAR formation/Time (sec)] (PARP1): inhibited
- CC50 [7, 9]: 20 µM
- CC50 [7, 10]: ~20 µM
- levels of co-localized γ-H2AX and 53BP1 foci (persistent DSBs) (shK-H 231 cells [8]): dramatically increased
- DSB levels (53BP1 foci formation) (shK-H 231 cells [8]; over time post-treatment): Dramatic increase in DSB levels
- CDK1 protein level (231 cells; 231 cells): no further reduction of CDK1
- BRCA1 activation (pS1497-BRCA1) (231 cells; 231 cells, Rucaparib alone 5 μM): activated
- CC50 (MDA-MB-231 shPARP1 cells; [9]): 17 µM
- CC50 (MDA-MB-231 shPARP1 cells; [10]): ~20 µM

SMILES: CN(C)Cc1ccc(-c2nc3cccc4c3n2CCNC4=O)cc1 [AG014361]
- CC50 (MDA-MB-231 shSCR cells; shSCR 231 cells, similar treatment conditions, read-out: LC50 values): ~20 µM
- sensitivity of shK-H cells in colony forming assays (MDA-MB-231 shK-H cells): more sensitive
- CC50 ([7]; parental 231 cells, similar treatment conditions, read-out: LC50 values): ~20 µM
- additional lethality in PARP1-deficient cells (MDA-MB-231 shPARP1 cells; shPARP1 231 cells, dose-response curve coinciding with parental or shSCR cells): did not induce additional lethality
- CC50 (MDA-MB-231 shPARP1 cells; shPARP1 231 cells, similar treatment conditions, read-out: LC50 values): ~20 µM

SMILES: Cn1ncnc1[C@H]1c2n[nH]c(=O)c3cc(F)cc(c23)N[C@@H]1c1ccc(F)cc1 [Talazoparib]
- sensitivity of shK-H cells in colony forming assays (MDA-MB-231 shK-H cells): more sensitive
